According to patent US20230143604A1, “QW DOSING OF GIP RECEPTOR AGONIST PEPTIDE COMPOUNDS AND USES THEREOF” (TAKEDA PHARMACEUTICAL COMPANY LIMITED, priority 2020, published 2023):
Starred links: 1 amine or outer side, 2 acyl side, 3 side chain; linkers in the order of their positions; H or OH if unused. Non-standard residues stand in square brackets, D forms with d. Residues, ends and D or L forms follow the SMILES beside them. Groups on a side chain read outwards from the residue. *: point of attachment. C18 diacid = O=C(O)CCCCCCCCCCCCCCCCC(=O)*; γGlu = O=C(O)[C@H](CCC(=O)[*:2])N[*:1]; NMeY = CN[C@@H](Cc1ccc(O)cc1)C(=O)O; AEEA = NCCOCCOCC(=O)O; Aib = CC(C)(N)C(=O)O

Test: physchem
Outline: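 Solubility at pH 7.4 determined by stepwise addition of 200 mM phosphate buffer in 100 μL increments to 3 mg peptide, mixing briefly each time, until no insoluble material remained, then measured by liquid chromatography.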

[1] = pH 7.4, aqueous buffer, pH 7.4 Phosphate Buffer - Solubility, 200 mM Phosphate buffer pH 7.4
[2] = pH 7.4, solubility in phosphate buffer at pH 7.4, 200 mM phosphate buffer pH 7.4

SMILES | solubility (pH 7.4) | solubility (pH 7.4, aqueous buffer) | solubility [1] | solubility [2]
CC[C@H](C)[C@H](NC(=O)[C@H](CO)NC(=O)[C@H](Cc1ccc(O)cc1)NC(=O)[C@H](CC(=O)O)NC(=O)[C@H](CO)NC(=O)[C@@H](NC(=O)[C@H](Cc1ccccc1)NC(=O)[C@@H](NC(=O)CNC(=O)[C@H](CCC(=O)O)NC(=O)C(C)(C)NC(=O)[C@H](Cc1ccc(O)cc1)NC)[C@@H](C)O)[C@@H](C)CC)C(=O)N[C@@H](C)C(=O)N[C@@H](CC(C)C)C(=O)N[C@@H](CC(=O)O)C(=O)N[C@@H](CCCNC(=N)N)C(=O)NC(C)(C)C(=O)N[C@@H](C)C(=O)N[C@@H](CCC(N)=O)C(=O)NC(C)(C)C(=O)N[C@@H](CC(N)=O)C(=O)N[C@@H](Cc1ccccc1)C(=O)N[C@H](C(=O)N[C@@H](CC(N)=O)C(=O)N[C@@H](Cc1c[nH]c2ccccc12)C(=O)N[C@@H](CC(C)C)C(=O)N[C@@H](CC(C)C)C(=O)N[C@@H](C)C(=O)N[C@@H](CCCCNC(=O)COCCOCCNC(=O)COCCOCCNC(=O)CC[C@H](NC(=O)CC[C@H](NC(=O)CCCCCCCCCCCCCCCCC(=O)O)C(=O)O)C(=O)O)C(=O)N[C@@H](CCCNC(=N)N)C(=O)NCC(=O)O)C(C)C [Compound 55] (H-[NMeY][Aib]EGTFISDYSIALDR[Aib]AQ[Aib]NFVNWLLAK([AEEA-AEEA-γGlu-γGlu-C18 diacid])RG-OH) | ≥ 15 mg/mL | ≥ 30 mg/mL |  | 
CC[C@H](C)[C@H](NC(=O)[C@H](CO)NC(=O)[C@H](Cc1ccc(O)cc1)NC(=O)[C@H](CC(=O)O)NC(=O)[C@H](CO)NC(=O)[C@@H](NC(=O)[C@H](Cc1ccccc1)NC(=O)[C@@H](NC(=O)CNC(=O)[C@H](CCC(=O)O)NC(=O)C(C)(C)NC(=O)[C@H](Cc1ccc(O)cc1)NC)[C@@H](C)O)[C@@H](C)CC)C(=O)N[C@@H](C)C(=O)N[C@@H](CC(C)C)C(=O)N[C@@H](CC(=O)O)C(=O)N[C@@H](CCCNC(=N)N)C(=O)NC(C)(C)C(=O)N[C@@H](C)C(=O)N[C@@H](CCC(N)=O)C(=O)NC(C)(C)C(=O)N[C@@H](CC(=O)O)C(=O)N[C@@H](Cc1ccccc1)C(=O)N[C@H](C(=O)N[C@@H](CC(N)=O)C(=O)N[C@@H](Cc1c[nH]c2ccccc12)C(=O)N[C@@H](CC(C)C)C(=O)N[C@@H](CC(C)C)C(=O)N[C@@H](C)C(=O)N[C@@H](CCCCNC(=O)COCCOCCNC(=O)COCCOCCNC(=O)CC[C@H](NC(=O)CC[C@H](NC(=O)CCCCCCCCCCCCCCCCC(=O)O)C(=O)O)C(=O)O)C(=O)N[C@@H](CCCNC(=N)N)C(=O)NCC(=O)O)C(C)C [Compound 56] (H-[NMeY][Aib]EGTFISDYSIALDR[Aib]AQ[Aib]DFVNWLLAK([AEEA-AEEA-γGlu-γGlu-C18 diacid])RG-OH) | ≥ 15 mg/mL | ≥ 30 mg/mL |  | 
CC[C@H](C)[C@H](NC(=O)[C@H](CO)NC(=O)[C@H](Cc1ccc(O)cc1)NC(=O)[C@H](CC(=O)O)NC(=O)[C@H](CO)NC(=O)[C@@H](NC(=O)[C@H](Cc1ccccc1)NC(=O)[C@@H](NC(=O)CNC(=O)[C@H](CCC(=O)O)NC(=O)C(C)(C)NC(=O)[C@H](Cc1ccc(O)cc1)NC)[C@@H](C)O)[C@@H](C)CC)C(=O)N[C@@H](C)C(=O)N[C@@H](CC(C)C)C(=O)N[C@@H](CC(=O)O)C(=O)N[C@@H](CCCNC(=N)N)C(=O)NC(C)(C)C(=O)N[C@@H](C)C(=O)N[C@@H](CCC(N)=O)C(=O)NC(C)(C)C(=O)N[C@@H](CC(=O)O)C(=O)N[C@@H](Cc1ccccc1)C(=O)N[C@H](C(=O)N[C@@H](CC(N)=O)C(=O)N[C@@H](Cc1c[nH]c2ccccc12)C(=O)N[C@@H](CC(C)C)C(=O)N[C@@H](CC(C)C)C(=O)N[C@@H](C)C(=O)N[C@@H](CCCCNC(=O)COCCOCCNC(=O)COCCOCCNC(=O)CC[C@H](NC(=O)CC[C@H](NC(=O)CCCCCCCCCCCCCCCCC(=O)O)C(=O)O)C(=O)O)C(=O)N[C@@H](CCCNC(=N)N)C(=O)NCC(=O)NCC(=O)NCC(=O)NCC(=O)N[C@@H](CO)C(N)=O)C(C)C [Compound 57] (H-[NMeY][Aib]EGTFISDYSIALDR[Aib]AQ[Aib]DFVNWLLAK([AEEA-AEEA-γGlu-γGlu-C18 diacid])RGGGGS-NH2) | ≥ 15 mg/mL | ≥ 30 mg/mL |  | 
CC[C@H](C)[C@H](NC(=O)[C@H](CO)NC(=O)[C@H](Cc1ccc(O)cc1)NC(=O)[C@H](CC(=O)O)NC(=O)[C@H](CO)NC(=O)[C@@H](NC(=O)[C@H](Cc1ccccc1)NC(=O)[C@@H](NC(=O)CNC(=O)[C@H](CCC(=O)O)NC(=O)C(C)(C)NC(=O)[C@H](Cc1ccc(O)cc1)NC)[C@@H](C)O)[C@@H](C)CC)C(=O)N[C@@H](C)C(=O)N[C@@H](CC(C)C)C(=O)N[C@@H](CC(=O)O)C(=O)N[C@@H](CCCNC(=N)N)C(=O)NC(C)(C)C(=O)N[C@@H](C)C(=O)N[C@@H](CCC(N)=O)C(=O)NC(C)(C)C(=O)N[C@@H](CC(=O)O)C(=O)N[C@@H](Cc1ccccc1)C(=O)N[C@H](C(=O)N[C@@H](CC(N)=O)C(=O)N[C@@H](Cc1c[nH]c2ccccc12)C(=O)N[C@@H](CC(C)C)C(=O)N[C@@H](CC(C)C)C(=O)N[C@@H](C)C(=O)N[C@@H](CCCCNC(=O)COCCOCCNC(=O)COCCOCCNC(=O)CC[C@H](NC(=O)CC[C@H](NC(=O)CCCCCCCCCCCCCCCCC(=O)O)C(=O)O)C(=O)O)C(=O)N[C@@H](CCCNC(=N)N)C(=O)N1CCC[C@H]1C(=O)N[C@@H](CO)C(=O)N[C@@H](CO)C(=O)NCC(=O)N[C@@H](C)C(=O)N1CCC[C@H]1C(=O)N1CCC[C@H]1C(=O)N1CCC[C@H]1C(=O)N[C@@H](CO)C(N)=O)C(C)C [Compound 58] (H-[NMeY][Aib]EGTFISDYSIALDR[Aib]AQ[Aib]DFVNWLLAK([AEEA-AEEA-γGlu-γGlu-C18 diacid])RPSSGAPPPS-NH2) |  |  | ≥ 30 mg/mL | ≥ 15 mg/mL
CC[C@H](C)[C@H](NC(=O)[C@H](CO)NC(=O)[C@H](Cc1ccc(O)cc1)NC(=O)[C@H](CC(=O)O)NC(=O)[C@H](CO)NC(=O)[C@@H](NC(=O)[C@H](Cc1ccccc1)NC(=O)[C@@H](NC(=O)CNC(=O)[C@H](CCC(=O)O)NC(=O)C(C)(C)NC(=O)[C@H](Cc1ccc(O)cc1)NC)[C@@H](C)O)[C@@H](C)CC)C(=O)N[C@@H](C)C(=O)N[C@@H](CC(C)C)C(=O)N[C@@H](CC(=O)O)C(=O)N[C@@H](CCCNC(=N)N)C(=O)NC(C)(C)C(=O)N[C@@H](C)C(=O)N[C@@H](CCC(N)=O)C(=O)NC(C)(C)C(=O)N[C@@H](CC(N)=O)C(=O)N[C@@H](Cc1ccccc1)C(=O)N[C@H](C(=O)N[C@@H](CC(N)=O)C(=O)N[C@@H](Cc1c[nH]c2ccccc12)C(=O)N[C@@H](CC(C)C)C(=O)N[C@@H](CC(C)C)C(=O)N[C@@H](C)C(=O)N[C@@H](CCCCNC(=O)COCCOCCNC(=O)COCCOCCNC(=O)CC[C@H](NC(=O)CC[C@H](NC(=O)CCCCCCCCCCCCCCCCC(=O)O)C(=O)O)C(=O)O)C(=O)N[C@@H](CO)C(=O)N1CCC[C@H]1C(=O)N[C@@H](CO)C(=O)N[C@@H](CO)C(=O)NCC(=O)N[C@@H](C)C(=O)N1CCC[C@H]1C(=O)N1CCC[C@H]1C(=O)N1CCC[C@H]1C(=O)N[C@@H](CO)C(N)=O)C(C)C [Compound 59] (H-[NMeY][Aib]EGTFISDYSIALDR[Aib]AQ[Aib]NFVNWLLAK([AEEA-AEEA-γGlu-γGlu-C18 diacid])SPSSGAPPPS-NH2) |  |  | ≥ 30 mg/mL | ≥ 15 mg/mL
CC[C@H](C)[C@H](NC(=O)[C@H](CO)NC(=O)[C@H](Cc1ccc(O)cc1)NC(=O)[C@H](CC(=O)O)NC(=O)[C@H](CO)NC(=O)[C@@H](NC(=O)[C@H](Cc1ccccc1)NC(=O)[C@@H](NC(=O)CNC(=O)[C@H](CCC(=O)O)NC(=O)C(C)(C)NC(=O)[C@H](Cc1ccc(O)cc1)NC)[C@@H](C)O)[C@@H](C)CC)C(=O)N[C@@H](C)C(=O)N[C@@H](CC(C)C)C(=O)N[C@@H](CC(=O)O)C(=O)N[C@@H](CCCNC(=N)N)C(=O)NC(C)(C)C(=O)N[C@@H](C)C(=O)N[C@@H](CCC(N)=O)C(=O)NC(C)(C)C(=O)N[C@@H](CC(=O)O)C(=O)N[C@@H](Cc1ccccc1)C(=O)N[C@H](C(=O)N[C@@H](CC(N)=O)C(=O)N[C@@H](Cc1c[nH]c2ccccc12)C(=O)N[C@@H](CC(C)C)C(=O)N[C@@H](CC(C)C)C(=O)N[C@@H](C)C(=O)N[C@@H](CCC(N)=O)C(=O)N[C@@H](CCCCNC(=O)COCCOCCNC(=O)COCCOCCNC(=O)CC[C@H](NC(=O)CC[C@H](NC(=O)CCCCCCCCCCCCCCCCC(=O)O)C(=O)O)C(=O)O)C(=O)NCC(=O)O)C(C)C [Compound 61] (H-[NMeY][Aib]EGTFISDYSIALDR[Aib]AQ[Aib]DFVNWLLAQK([AEEA-AEEA-γGlu-γGlu-C18 diacid])G-OH) | ≥ 15 mg/mL | ≥ 30 mg/mL |  | 
CC[C@H](C)[C@H](NC(=O)[C@H](Cc1ccccc1)NC(=O)[C@@H](NC(=O)CNC(=O)[C@H](CCC(=O)O)NC(=O)C(C)(C)NC(=O)[C@H](Cc1ccc(O)cc1)NC)[C@@H](C)O)C(=O)N[C@@H](CO)C(=O)N[C@@H](CC(=O)O)C(=O)N[C@@H](Cc1ccc(O)cc1)C(=O)N[C@@H](CO)C(=O)N[C@H](C(=O)NC(C)(C)C(=O)N[C@@H](CC(C)C)C(=O)N[C@@H](CC(=O)O)C(=O)N[C@@H](CCCNC(=N)N)C(=O)NC(C)(C)C(=O)N[C@@H](C)C(=O)N[C@@H](CCC(N)=O)C(=O)NC(C)(C)C(=O)N[C@@H](CC(=O)O)C(=O)N[C@@H](Cc1ccccc1)C(=O)N[C@H](C(=O)N[C@@H](CC(N)=O)C(=O)N[C@@H](Cc1c[nH]c2ccccc12)C(=O)N[C@@H](CC(C)C)C(=O)N[C@@H](CC(C)C)C(=O)N[C@@H](C)C(=O)N[C@@H](CCCCNC(=O)COCCOCCNC(=O)COCCOCCNC(=O)CC[C@H](NC(=O)CC[C@H](NC(=O)CCCCCCCCCCCCCCCCC(=O)O)C(=O)O)C(=O)O)C(=O)N[C@@H](CCCNC(=N)N)C(=O)NCC(=O)O)C(C)C)[C@@H](C)CC [Compound 62] (H-[NMeY][Aib]EGTFISDYSI[Aib]LDR[Aib]AQ[Aib]DFVNWLLAK([AEEA-AEEA-γGlu-γGlu-C18 diacid])RG-OH) | ≥ 15 mg/mL | ≥ 30 mg/mL |  | 
